Laboratory results: US10512269B2, “Herbicidal compounds” (Syngenta Participations AG, priority 2015, dated 2019)

How the values were obtained:
Experiment in all cases: B1 Post-emergence efficacy, glasshouse pot test
Assay type in all cases: in vivo
Details in all cases: post-emergence spray, evaluated after 13 days
[1] = test system: Ipomoea hederacea (IPOHE)
Protocol: (§1) Seeds of a variety of test species are sown in standard soil in pots: —Solanum nigrum (SOLNI), Amaranthus retoflexus (AMARE), Setaria faberi (SETFA), Echinochloa crus-galli (ECHCG), Ipomoea hederacea (IPOHE), Lolium perenne (LOLPE). After 8 days cultivation (post-emergence) under controlled conditions in a glasshouse (at 24/16° C., day/night; 14 hours light; 65% humidity), the plants are sprayed with an aqueous spray solution derived from the formulation of the technical active ingredient in acetone/water (50:50) solution containing 0.5% Tween 20 (polyoxyethelyene sorbitan monolaurate, CAS RN 9005-64-5). Compounds are applied at 1000 g/ha and 250 g/ha. The test plants are then grown in a glasshouse under controlled conditions in a glasshouse (at 24/16° C., day/night; 14 hours light; 65% humidity) and watered twice daily. After 13 days, the test is evaluated for the percentage damage caused to the plant. The biological activities are assessed on a five point scale (5=80-100%; 4=60-79%; 3=40-59%; 2=20-39%; 1=0-19%). A blank value in the table is indicative that the compound was not tested on that species.

Lolium perenne (LOLPE) = test system: Lolium perenne (LOLPE)
Protocol: as §1

Solanum nigrum (SOLNI) = test system: Solanum nigrum (SOLNI)
Protocol: as §1

Setaria faberi (SETFA) = test system: Setaria faberi (SETFA)
Protocol: as §1

[2] = test system: Echinochloa crus-galli (ECHCG)
Protocol: as §1

[3] = test system: Amaranthus retoflexus (AMARE)
Protocol: as §1

| Structure (SMILES) | percentage damage caused to the plant, five point scale, IPOHE ([1]; 250 g/ha) | percentage damage caused to the plant, five point scale, IPOHE ([1]; 1000 g/ha) | percentage damage caused to the plant, five point scale, LOLPE (Lolium perenne (LOLPE); 250 g/ha) | percentage damage caused to the plant, five point scale, LOLPE (Lolium perenne (LOLPE); 1000 g/ha) | percentage damage caused to the plant, five point scale, SOLNI (Solanum nigrum (SOLNI); 250 g/ha) | percentage damage caused to the plant, five point scale, SOLNI (Solanum nigrum (SOLNI); 1000 g/ha) | percentage damage caused to the plant, five point scale, SETFA (Setaria faberi (SETFA); 250 g/ha) | percentage damage caused to the plant, five point scale, SETFA (Setaria faberi (SETFA); 1000 g/ha) | percentage damage caused to the plant, five point scale, ECHCG ([2]; 250 g/ha) | percentage damage caused to the plant, five point scale, ECHCG ([2]; 1000 g/ha) | percentage damage caused to the plant, five point scale, AMARE ([3]; 250 g/ha) | percentage damage caused to the plant, five point scale, AMARE ([3]; 1000 g/ha) |
| --- | --- | --- | --- | --- | --- | --- | --- | --- | --- | --- | --- | --- |
| C#CCn1c(=O)c(-c2c(Cl)ccc(Cl)c2OCc2cnc(Cl)s2)c(O)c2scnc21 [Compound 1.19, 6-[3,6-dichloro-2-[(2-chlorothiazol-5-yl)methoxy]phenyl]-7-hydroxy-4-prop-2-ynyl-thiazolo[4,5-b]pyridin-5-one] | 5 (5=80-100%) | 5 (5=80-100%) | 5 (5=80-100%) | 5 (5=80-100%) | 5 (5=80-100%) | 5 (5=80-100%) | 5 (5=80-100%) | 5 (5=80-100%) | 5 (5=80-100%) | 5 (5=80-100%) | 5 (5=80-100%) | 5 (5=80-100%) |
| C#CCn1c(=O)c(-c2c(Cl)ccc(Cl)c2OCc2ccccc2)c(O)c2nsnc21 [Compound 9.22, 6-(2-benzyloxy-3,6-dichloro-phenyl)-7-hydroxy-4-prop-2-ynyl-[1,2,5]thiadiazolo[3,4-b]pyridin-5-one] | 5 (5=80-100%) | 5 (5=80-100%) | 4 (4=60-79%) | 5 (5=80-100%) | 4 (4=60-79%) | 5 (5=80-100%) | 2 (2=20-39%) | 5 (5=80-100%) | 2 (2=20-39%) | 3 (3=40-59%) | 4 (4=60-79%) | 5 (5=80-100%) |
| C#CCN1c2ncsc2C(O)=C(c2c(Cl)ccc(Cl)c2OCc2ccccc2)S1(=O)=O [Compound 5.22] | 2 (2=20-39%) | 2 (2=20-39%) | 2 (2=20-39%) | 2 (2=20-39%) | 1 (1=0-19%) | 1 (1=0-19%) | 1 (1=0-19%) | 2 (2=20-39%) | 2 (2=20-39%) | 2 (2=20-39%) | 2 (2=20-39%) | 1 (1=0-19%) |
| O=c1c(-c2c(Cl)ccc(Cl)c2OCc2cnc(Cl)s2)c(O)c2scnc2n1CC(F)F [Compound 3.19] | 5 (5=80-100%) | 5 (5=80-100%) | 5 (5=80-100%) | 5 (5=80-100%) | 5 (5=80-100%) | 5 (5=80-100%) | 5 (5=80-100%) | 5 (5=80-100%) | 4 (4=60-79%) | 5 (5=80-100%) | 5 (5=80-100%) | 5 (5=80-100%) |
| C#CCn1c(=O)c(-c2c(F)ccc(Cl)c2OCc2ccccc2)c(O)c2csnc21 [Compound 15.22] | 4 (4=60-79%) | 3 (3=40-59%) | 3 (3=40-59%) | 4 (4=60-79%) | 4 (4=60-79%) | 5 (5=80-100%) | 1 (1=0-19%) | 3 (3=40-59%) | 2 (2=20-39%) | 3 (3=40-59%) | 4 (4=60-79%) | 5 (5=80-100%) |
| O=S1(=O)C(c2c(Cl)ccc(Cl)c2OCc2ccccc2)=C(O)c2scnc2N1CC(F)F [Compound 13.22] | 4 (4=60-79%) | 5 (5=80-100%) | 2 (2=20-39%) | 2 (2=20-39%) | 3 (3=40-59%) | 4 (4=60-79%) | 1 (1=0-19%) | 2 (2=20-39%) | 1 (1=0-19%) | 2 (2=20-39%) | 3 (3=40-59%) | 2 (2=20-39%) |
